Laboratory results reported in PubChem BioAssay (NCI).
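Where inhibition never reached the appropriate level, the endpoint shown equals the highest concentration tested. Otherwise, values were interpolated linearly from a five-concentration, 48-hour dose response in 96-well plates. The concentration for full growth arrest is given as TGI.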

Legend:
Assay in all cases: DTP human tumour cell line panel, 48 h
[1] = test system: HCT-15 colon
[2] = test system: A498 renal
[3] = test system: SK-MEL-5 melanoma
[4] = test system: OVCAR-3 ovarian
[5] = test system: DU-145 prostate
[6] = test system: U251 CNS
[7] = test system: SW-620 colon
[8] = test system: NCI-H226 lung
[9] = test system: CAKI-1 renal
[10] = test system: HCC-2998 colon
[11] = test system: OVCAR-5 ovarian
[12] = test system: PC-3 prostate
[13] = test system: KM12 colon
[14] = test system: CCRF-CEM leukemia
[15] = test system: SN12C renal
[16] = test system: T-47D breast
[17] = test system: SF-268 CNS
[18] = test system: HOP-92 NSCLC
[19] = test system: SR leukemia
[20] = test system: M14 melanoma
[21] = test system: RXF 393 renal
[22] = test system: SNB-19 CNS
[23] = test system: OVCAR-4 ovarian
[24] = test system: MDA-MB-435
[25] = test system: UO-31 renal
[26] = test system: MCF7 breast
[27] = test system: MDA-MB-231 breast
[28] = test system: K-562 leukemia
[29] = test system: HOP-62 NSCLC
[30] = test system: ACHN renal
[31] = test system: OVCAR-8 ovarian
[32] = test system: NCI/ADR-RES ovarian
[33] = test system: COLO 205 colon
[34] = test system: MDA-N
[35] = test system: HCT-116 colon
[36] = test system: A549 NSCLC
[37] = test system: NCI-H522 lung
[38] = test system: MALME-3M melanoma
[39] = test system: SF-295 CNS
[40] = test system: SK-OV-3 ovarian
[41] = test system: LOX IMVI melanoma
[42] = test system: MOLT-4 leukemia
[43] = test system: IGROV1 ovarian
[44] = test system: EKVX NSCLC
[45] = test system: HS 578T breast
[46] = test system: SK-MEL-2 melanoma
[47] = test system: NCI-H23 lung
[48] = test system: TK-10 renal
[49] = test system: SF-539 CNS
[50] = test system: 786-0 renal
[51] = test system: HT29 colon
[52] = test system: BT-549 breast
[53] = test system: UACC-257 melanoma
[54] = test system: HL-60(TB) leukemia
[55] = test system: SK-MEL-28 melanoma
[56] = test system: NCI-H460 lung
[57] = test system: SNB-75 CNS
[58] = test system: UACC-62 melanoma
[59] = test system: RPMI-8226 leukemia

C=CCOC(=O)N1c2ccc(O[Si](C)(C)C(C)(C)C)cc2[C@@]23O[C@@]24[C@@H]1C#C/C=C\C#C[C@]3(O)C(OC)(OC)C[C@@H]4C
TGI [1]: > 100 µM | TGI [2]: 5.48 µM | TGI [3]: > 100 µM | TGI [4]: > 100 µM | TGI [5]: > 100 µM | TGI [6]: > 100 µM | TGI [7]: > 100 µM | TGI [8]: > 100 µM | TGI [9]: > 100 µM | TGI [10]: > 100 µM | TGI [11]: > 100 µM | TGI [12]: > 100 µM | TGI [13]: > 100 µM | TGI [14]: > 100 µM | TGI [15]: > 100 µM | TGI [16]: > 100 µM | TGI [17]: > 100 µM | TGI [18]: > 100 µM | TGI [19]: > 100 µM | TGI [20]: > 100 µM | TGI [21]: > 100 µM | TGI [22]: > 100 µM | TGI [23]: > 100 µM | TGI [24]: > 100 µM | TGI [25]: > 100 µM | TGI [26]: > 92.4 µM | TGI [27]: > 100 µM | TGI [28]: > 100 µM | TGI [29]: > 100 µM | TGI [30]: > 100 µM | TGI [31]: > 100 µM | TGI [32]: > 100 µM | TGI [33]: > 100 µM | TGI [34]: > 100 µM | TGI [35]: > 100 µM | TGI [36]: > 100 µM | TGI [37]: > 100 µM | TGI [38]: > 100 µM | TGI [39]: > 100 µM | TGI [40]: > 100 µM | TGI [41]: > 100 µM | TGI [42]: > 42.9 µM | TGI [43]: > 100 µM | TGI [44]: > 100 µM | TGI [45]: > 89.1 µM | TGI [46]: > 100 µM | TGI [47]: > 100 µM | TGI [48]: > 100 µM | TGI [49]: > 100 µM | TGI [50]: > 100 µM | TGI [51]: > 100 µM | TGI [52]: > 100 µM | TGI [53]: > 100 µM | TGI [54]: > 100 µM | TGI [55]: > 100 µM | TGI [56]: > 100 µM | TGI [57]: > 75.9 µM | TGI [58]: > 42 µM | TGI [59]: > 100 µM

CCC/C(Cl)=N\OC(=O)Nc1ccc(F)cc1
TGI [1]: 19.3 µM | TGI [2]: 35.3 µM | TGI [3]: 26.7 µM | TGI [4]: 9.76 µM | TGI [5]: 31 µM | TGI [6]: 34.8 µM | TGI [7]: 27.2 µM | TGI [8]: 43.4 µM | TGI [9]: 3.47 µM | TGI [10]: 32.4 µM | TGI [11]: 36 µM | TGI [12]: 31.2 µM | TGI [13]: 42.6 µM | TGI [14]: 3.85 µM | TGI [15]: 31 µM | TGI [16]: 21.9 µM | TGI [17]: > 65 µM | TGI [18]: 16.5 µM | TGI [19]: 5.49 µM | TGI [20]: 29.6 µM | TGI [21]: 33.1 µM | TGI [22]: 40.9 µM | TGI [23]: 30.8 µM | TGI [24]: 31.9 µM | TGI [25]: 31.5 µM | TGI [26]: > 55 µM | TGI [27]: 33.1 µM | TGI [28]: 4 µM | TGI [29]: 38.2 µM | TGI [30]: 24.7 µM | TGI [31]: > 60.9 µM | TGI [32]: > 62.3 µM | TGI [33]: 8.97 µM | TGI [34]: 30.2 µM | TGI [35]: 31.1 µM | TGI [36]: > 100 µM | TGI [37]: 4.12 µM | TGI [38]: 20.5 µM | TGI [39]: > 100 µM | TGI [40]: > 59.7 µM | TGI [41]: 9.97 µM | TGI [42]: 14.9 µM | TGI [43]: 33.3 µM | TGI [44]: 32.6 µM | TGI [45]: > 86.4 µM | TGI [46]: 34.8 µM | TGI [47]: 41.2 µM | TGI [48]: 29.2 µM | TGI [50]: 17.5 µM | TGI [51]: > 69.6 µM | TGI [52]: 28.4 µM | TGI [53]: 30.5 µM | TGI [54]: 3.86 µM | TGI [55]: 38.4 µM | TGI [56]: > 100 µM | TGI [57]: > 58 µM | TGI [58]: 27.5 µM | TGI [59]: 15.6 µM
